Measurements reported in PubChem BioAssay AID248 (DTP/NCI, 2004).
Values joined by “and” are separate entries in the source; they are usually repeats but may differ in a detail not shown here. Equal values may be shown once. Toxic doses and inconclusive results are not listed. Peptide text beside a SMILES is read from it. * marks the point of attachment. Cbz = O=C(OCc1ccccc1)*; OBn = c1ccc(CO*)cc1; Bn = c1ccc(C*)cc1

System: L1210 leukemia ip in BDF1 mice, survival T/C
Experiment: NCI In Vivo Anticancer Drug Screen. Data for tumor model L1210 Leukemia (intraperitoneal) in B6D2F1 (BDF1) mice
Settings: endpoint: mean survival time, higher = longer survival
How it was run: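 Value reflects the ratio of survival in compound-treated mice to survival in vehicle-treated controls, with both groups carrying the same transplanted tumor.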

[1] = dose: 100.0 mg/kg/injection, schedule: Q04DX003 (ip), vehicle: saline with Tween-80
[2] = dose: 200.0 mg/kg/injection, schedule: Q04DX003 (ip), vehicle: saline with Tween-80
[3] = dose: 400.0 mg/kg/injection, schedule: Q04DX003 (ip), vehicle: saline with Tween-80
[4] = dose: 100.0 mg/kg/injection, schedule: Q04DX003 (ip), vehicle: Klucel (hydroxypropylcellulose) (HPC)
[5] = dose: 200.0 mg/kg/injection, schedule: Q04DX003 (ip), vehicle: Klucel (hydroxypropylcellulose) (HPC)
[6] = dose: 400.0 mg/kg/injection, schedule: Q04DX003 (ip), vehicle: Klucel (hydroxypropylcellulose) (HPC)
[7] = dose: 100.0 mg/kg/injection, schedule: Q01DX009 (ip), vehicle: saline
[8] = dose: 100.0 mg/kg/injection, schedule: Q04DX003 (ip), vehicle: saline
[9] = dose: 200.0 mg/kg/injection, schedule: Q01DX009 (ip), vehicle: saline
[10] = dose: 200.0 mg/kg/injection, schedule: Q04DX003 (ip), vehicle: saline
[11] = dose: 400.0 mg/kg/injection, schedule: Q04DX003 (ip), vehicle: saline
[12] = dose: 100.0 mg/kg/injection, schedule: Q01DX009 (ip), vehicle: Klucel (hydroxypropylcellulose) (HPC)
[13] = dose: 200.0 mg/kg/injection, schedule: Q01DX009 (ip), vehicle: Klucel (hydroxypropylcellulose) (HPC)
[14] = dose: 400.0 mg/kg/injection, schedule: Q01DX009 (ip), vehicle: Klucel (hydroxypropylcellulose) (HPC)
[15] = dose: 100.0 mg/kg/injection, schedule: Q01DX009 (ip), vehicle: saline with Tween-80
[16] = dose: 200.0 mg/kg/injection, schedule: Q01DX009 (ip), vehicle: saline with Tween-80
[17] = dose: 400.0 mg/kg/injection, schedule: Q01DX009 (ip), vehicle: saline with Tween-80
[18] = dose: 100.0 mg/kg/injection, schedule: Q01DX001 (ip), vehicle: saline
[19] = dose: 200.0 mg/kg/injection, schedule: Q01DX001 (ip), vehicle: saline

SMILES: COc1cc(C(C)=O)cc(OC)c1Oc1cc(OC)c(OC)c(OC)c1C(C)=O
- T/C [1]: 95 % of control
- T/C [2]: 97 % of control
- T/C [3]: 101 % of control

SMILES: O=C(O)c1ccc(F)c([N+](=O)[O-])c1
- T/C (dose: 100.0 mg/kg/injection, schedule: Q04DX002 (ip), vehicle: saline): 102 % of control
- T/C (dose: 200.0 mg/kg/injection, schedule: Q04DX002 (ip), vehicle: saline): 113 % of control
- T/C (dose: 400.0 mg/kg/injection, schedule: Q04DX002 (ip), vehicle: saline): 107 % of control

SMILES: CN(c1ccccc1)P(=O)(N1CC1)N1CC1
- T/C (dose: 4.4 mg/kg/injection, schedule: Q01DX009 (ip), vehicle: carboxymethylcellulose (CMC)): 117 % of control
- T/C (dose: 6.2 mg/kg/injection, schedule: Q01DX001 (ip), vehicle: carboxymethylcellulose (CMC)): 111 % of control
- T/C (dose: 6.6 mg/kg/injection, schedule: Q01DX009 (ip), vehicle: carboxymethylcellulose (CMC)): 152 % of control
- T/C (dose: 12.5 mg/kg/injection, schedule: Q01DX001 (ip), vehicle: carboxymethylcellulose (CMC)): 104 % of control
- T/C (dose: 15.0 mg/kg/injection, schedule: Q01DX009 (ip), vehicle: carboxymethylcellulose (CMC)): 105 % of control
- T/C (dose: 22.0 mg/kg/injection, schedule: Q01DX001 (ip), vehicle: carboxymethylcellulose (CMC)): 123 % of control
- T/C (dose: 33.0 mg/kg/injection, schedule: Q01DX001 (ip), vehicle: carboxymethylcellulose (CMC)): 159 % of control
- T/C (dose: 50.0 mg/kg/injection, schedule: Q01DX001 (ip), vehicle: carboxymethylcellulose (CMC)): 115 % of control
- T/C (dose: 75.0 mg/kg/injection, schedule: Q01DX001 (ip), vehicle: carboxymethylcellulose (CMC)): 102 % of control

SMILES: CC(=O)OCC(=O)[C@@]1(O)CC[C@H]2[C@@H]3CCC4=CC(=O)C=C[C@]4(C)[C@H]3C(=O)C[C@@]21C
- T/C (dose: 12.5 mg/kg/injection, schedule: Q01DX009 (ip), vehicle: Klucel (hydroxypropylcellulose) (HPC)): 93 % of control
- T/C (dose: 25.0 mg/kg/injection, schedule: Q01DX009 (ip), vehicle: Klucel (hydroxypropylcellulose) (HPC)): 98 % of control
- T/C (dose: 50.0 mg/kg/injection, schedule: Q01DX009 (ip), vehicle: Klucel (hydroxypropylcellulose) (HPC)): 103 % of control
- T/C (dose: 75.0 mg/kg/injection, schedule: Q01DX009 (ip), vehicle: Klucel (hydroxypropylcellulose) (HPC)): 100 % of control
- T/C (dose: 115.0 mg/kg/injection, schedule: Q01DX009 (ip), vehicle: Klucel (hydroxypropylcellulose) (HPC)): 98 % of control
- T/C (dose: 170.0 mg/kg/injection, schedule: Q01DX009 (ip), vehicle: Klucel (hydroxypropylcellulose) (HPC)): 103 % of control
- T/C (dose: 255.0 mg/kg/injection, schedule: Q01DX009 (ip), vehicle: Klucel (hydroxypropylcellulose) (HPC)): 86 % of control

SMILES: CC(C)C(NC(=O)C(CSCc1ccccc1)NC(=O)OCc1ccccc1)C(=O)OCc1ccccc1 (centres undefined) (Cbz-Cys(Bn)-Val-OBn; configuration not given here)
- T/C [4]: 98 % of control
- T/C [5]: 93 % of control
- T/C [6]: 96 % of control

SMILES: CS/C(N)=N\C(=S)Nc1ccccc1
- T/C [1]: 95 % of control
- T/C [2]: 97 % of control
- T/C [3]: 101 % of control

SMILES: NC(=S)c1ccccc1N
- T/C (dose: 15.0 mg/kg/injection, schedule: Q01DX Z (ip), vehicle: methylcellulose (MC)): 110 % of control
- T/C (dose: 30.0 mg/kg/injection, schedule: Q01DX Z (ip), vehicle: methylcellulose (MC)): 98 % of control
- T/C (dose: 60.0 mg/kg/injection, schedule: Q01DX Z (ip), vehicle: methylcellulose (MC)): 101 % of control
- T/C (dose: 120.0 mg/kg/injection, schedule: Q01DX Z (ip), vehicle: methylcellulose (MC)): 115 % of control

SMILES: COc1ccc(/C=C2\CCC3C(CCCC34OCCO4)C2=O)cc1 (centres undefined)
- T/C [7]: 88 % of control
- T/C [8]: 101 % of control
- T/C [9]: 101 % of control
- T/C [10]: 97 % of control
- T/C (dose: 400.0 mg/kg/injection, schedule: Q01DX009 (ip), vehicle: saline): 104 % of control
- T/C [11]: 99 % of control

SMILES: CCc1cccc2ccccc12
- T/C (dose: 50.0 mg/kg/injection, schedule: Q04DX003 (ip), vehicle: Klucel (hydroxypropylcellulose) (HPC)): 100 % of control
- T/C [12]: 90 % of control
- T/C [4]: 98 % of control
- T/C [13]: 92 % of control
- T/C [5]: 107 % of control
- T/C [14]: 96 % of control
- T/C [6]: 96 % of control

SMILES: O=C1NC2NC(=O)NC2N1 (centres undefined)
- T/C [15]: 98 % of control
- T/C [1]: 112 % of control
- T/C [16]: 115 % of control
- T/C [2]: 98 % of control
- T/C [17]: 96 % of control
- T/C [3]: 101 % of control

SMILES: O=C1C=C2C=CC3CC2(O1)C1CCCCN31 (centres undefined)
- T/C (dose: 10.0 mg/kg/injection, schedule: Q01DX001 (ip), vehicle: saline): 105 % of control
- T/C (dose: 20.0 mg/kg/injection, schedule: Q01DX001 (ip), vehicle: saline): 100 % of control
- T/C [18]: 105 % of control and 102 % of control
- T/C [19]: 104 % of control and 102 % of control

SMILES: CC(=O)c1ccc(O)c(CN(C2CCCCC2)C2CCCCC2)c1O
- T/C [18]: 100 % of control
- T/C [19]: 93 % of control
- T/C (dose: 400.0 mg/kg/injection, schedule: Q01DX001 (ip), vehicle: saline): 93 % of control

SMILES: CC(=O)N1C(=O)N(Cl)C(=O)C1(C)c1cccs1 (centres undefined)
- T/C [15]: 107 % of control
- T/C [1]: 105 % of control
- T/C [16]: 101 % of control
- T/C [2]: 103 % of control
- T/C [17]: 93 % of control
- T/C [3]: 106 % of control

SMILES: CCCCOC(=O)c1ccc(NC(=O)Nc2ccccc2CC)cc1
- T/C [12]: 102 % of control
- T/C [13]: 109 % of control
- T/C [14]: 94 % of control

SMILES: CCCC(C(=O)O)(c1ccccc1)c1ccccc1
- T/C (dose: 100.0 mg/kg/injection, schedule: Q04DX002 (ip), vehicle: gum acacia): 96 % of control
- T/C (dose: 200.0 mg/kg/injection, schedule: Q04DX002 (ip), vehicle: gum acacia): 104 % of control

SMILES: O=C(O)CCC1(c2ccccc2)CCCC1=O (centres undefined)
- T/C (dose: 12.5 mg/kg/injection, schedule: Q01DX009 (ip), vehicle: water): 101 % of control
- T/C (dose: 25.0 mg/kg/injection, schedule: Q01DX009 (ip), vehicle: water): 104 % of control
- T/C (dose: 50.0 mg/kg/injection, schedule: Q01DX009 (ip), vehicle: water): 98 % of control
- T/C (dose: 100.0 mg/kg/injection, schedule: Q01DX009 (ip), vehicle: water): 95 % of control

SMILES: O=C(C(=Nc1ccccc1)C(=Nc1ccccc1)C(=O)c1ccccc1)c1ccccc1
- T/C (dose: 100.0 mg/kg/injection, schedule: Q01DX001 (ip), vehicle: Klucel (hydroxypropylcellulose) (HPC)): 97 % of control
- T/C (dose: 200.0 mg/kg/injection, schedule: Q01DX001 (ip), vehicle: Klucel (hydroxypropylcellulose) (HPC)): 98 % of control
- T/C (dose: 400.0 mg/kg/injection, schedule: Q01DX001 (ip), vehicle: Klucel (hydroxypropylcellulose) (HPC)): 95 % of control

SMILES: CCCNc1ncnc2c1cnn2C
- T/C (dose: 50.0 mg/kg/injection, schedule: Q01DX009 (ip), vehicle: saline): 124 % of control
- T/C (dose: 50.0 mg/kg/injection, schedule: Q04DX003 (ip), vehicle: saline): 100 % of control
- T/C [18]: 107 % of control
- T/C [8]: 102 % of control
- T/C [19]: 104 % of control
- T/C [10]: 103 % of control

SMILES: CC(=O)Nc1ccc2c(c1)/C(=N/O)c1ccccc1-2
- T/C [8]: 97 % of control
- T/C [10]: 89 % of control
- T/C [11]: 94 % of control

SMILES: CCC1CCCCC1=O (centres undefined)
- T/C [15]: 98 % of control
- T/C [1]: 110 % of control
- T/C [16]: 97 % of control
- T/C [2]: 111 % of control
- T/C [17]: 101 % of control
- T/C [3]: 94 % of control

SMILES: O=C(O)c1c(Br)c(Br)c(Br)c(Br)c1C(=O)Nc1ccc(Br)cc1
- T/C [12]: 104 % of control
- T/C [13]: 101 % of control

SMILES: O=C(c1ccc(F)cc1)c1ccc([N+](=O)[O-])cc1
- T/C [1]: 97 % of control
- T/C [2]: 97 % of control
- T/C [3]: 98 % of control

SMILES: CC12CC3CC(C1)CC(C(=O)O)(C3)C2
- T/C [7]: 110 % of control
- T/C [8]: 97 % of control
- T/C [9]: 100 % of control
- T/C [10]: 97 % of control
- T/C [11]: 101 % of control

SMILES: Brc1n[nH]c(Br)n1
- T/C [15]: 93 % of control
- T/C [16]: 93 % of control
- T/C [17]: 91 % of control
